Legend:
KM12 luc = KM12 luc cell proliferation assay (Table 8); format: cell-based; conditions: KM12 luc cells; read-out: KM12 luc IC 50
Tel-TrkB = target: T1, Tel-TrkB (Homo sapiens, UniProt Q16620); test: Inhibition of proliferation of Ba/F3 cells expressing Tel-TrkB (BaF3/Tel-TrkB); format: cell-based; conditions: Ba/F3 Tel-TrkB cells; read-out: Ba/F3 Tel-TrkB IC 50
T1 construct: dimerization domain of Tel (ETV6) transcription factor (fusion partner, human ETV6 P41212); expressed in transfected cells; host or cells: luciferase expressing Ba/F3 murine hematopoietic progenitor cells; the other entry of the earlier key: ETV6 (P41212, Transcription factor ETV6)
T1 sequence (Q16620 538-822 limits assumed): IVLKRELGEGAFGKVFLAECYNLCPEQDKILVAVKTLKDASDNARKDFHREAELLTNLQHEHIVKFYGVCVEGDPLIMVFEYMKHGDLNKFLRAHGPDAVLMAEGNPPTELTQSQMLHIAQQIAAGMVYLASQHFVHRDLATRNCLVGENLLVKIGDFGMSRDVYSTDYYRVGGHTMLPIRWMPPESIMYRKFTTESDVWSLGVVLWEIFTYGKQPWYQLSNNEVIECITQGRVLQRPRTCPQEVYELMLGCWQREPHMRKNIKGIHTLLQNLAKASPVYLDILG
Protocol: (§1) Test compounds were dissolved in DMSO (10 mM) and transferred into 1.4 mL flat bottom or V-shaped Matrix tubes carrying a unique 2D matrix chip by individual compound hubs. The numbers of these chips were distinctively linked to the individual compound identification numbers. The stock solutions were stored at −20° C. if not used immediately. For the test procedure the vials were defrosted and identified by a scanner whereby a working sheet is generated that guides the subsequent working steps.
(§2) Compound dilutions were made in 384 well plates. This format enabled the assay of maximally 28 individual test compounds at 12 concentrations (single points) including 2 reference compounds. The dilution protocol included the production of pre-dilution plates, master plates and assay plates: • Compound plates: 30 μL of individual compound (10 mM) DMSO solution including standard compound were transferred into columns 1 and 13 of a 384 well plate. 20 μL of DMSO were added to the rest of the wells and the compounds were serially diluted (1:3) by transferring 10 μL from a well in column 1 or 13 to the next well in column 2 or 14 respectively and successively with the help of a Minitrack robot. • Assay plates: Identical assay plates were then prepared by adding […] each of compound dilutions of the compound plates into 384-well “assay plates”. In the following the compounds were mixed with 50 μL of assays components (cells or enzyme) and tested for their inhibitory activity.
(§3) Compounds of Formula (I) were tested for their antiproliferative effect on Ba/F3 cells expressing either Tel-TrkA, Tel-TrkB or Tel-TrkC and an additional panel of 34 selected diverse kinases activated by fusion to the dimerizing partners Bcr or Tel (Abl, A1K, BMX, EphA3, EphB2, FGFR2, FGFR3, FGFR4, FGR, FLT1, FLT3, FLT4, FMS, IGF1R, InsR, JAK1, JAK2, JAK3, KDR, Kit, Lck, Lyn, MER, MET, PDGFRb, RET, RON, Ros-1, Src, Aurora, TIE2, TYK2, Tie1, ZAP70). The antiproliferative effect of these compounds on the different cell lines and on the non transformed cells were tested at 12 different concentrations of 3-fold serially diluted compounds in 384 well plates as described above (in media lacking IL3). The IC50 values of the compounds the different cell lines were determined from dose response curves.
(§4) The cell line used is the luciferase expressing Ba/F3 murine hematopoietic progenitor cell line transformed with human Tel-TrkA, Tel-TrkB or Tel-TrkC cDNAs (Ba/F3 EN A/B/C). These cells maintained in RPMI/10% fetal bovine serum (RPMI/FCS) supplemented with penicillin 50 mg/mL, streptomycin 50 mg/mL and L-glutamine […]. Untransformed Ba/F3 cells were similarly maintained with the addition 5 ng/ml of murine recombinant IL3. 50 μl of a Ba/F3 or Ba/F3 EN A/B/C cell suspension were plated in Greiner 384 well microplates (white)) at a density of 2000 cells per well. […] The cells were incubated for 48 hours at 37° C., 5% CO2. 25 μl of Bright Glo® (Promega) luciferase substrate is added to each well. The emited luminiscence is quantified using the ACQUEST™ luminescence system (Molecular Devices). IC50 values were calculated by linear regression analysis of the percentage inhibition of each compound at 12 concentrations.

[1] = target: T2, full length rTrkA and mNGF (Rattus norvegicus, UniProt P35739); test: Inhibition of proliferation of Ba/F3 cells co-expressing full length rTrkA and mNGF (BaF3/TrkA-NFG); format: cell-based; conditions: BaF3 TRKA-NGF cells, CTG readout
T2 construct: co-expressing full length rTrkA and mNGF; expressed in transfected cells; host or cells: Ba/F3 cells
T2 sequence (P35739 33-799): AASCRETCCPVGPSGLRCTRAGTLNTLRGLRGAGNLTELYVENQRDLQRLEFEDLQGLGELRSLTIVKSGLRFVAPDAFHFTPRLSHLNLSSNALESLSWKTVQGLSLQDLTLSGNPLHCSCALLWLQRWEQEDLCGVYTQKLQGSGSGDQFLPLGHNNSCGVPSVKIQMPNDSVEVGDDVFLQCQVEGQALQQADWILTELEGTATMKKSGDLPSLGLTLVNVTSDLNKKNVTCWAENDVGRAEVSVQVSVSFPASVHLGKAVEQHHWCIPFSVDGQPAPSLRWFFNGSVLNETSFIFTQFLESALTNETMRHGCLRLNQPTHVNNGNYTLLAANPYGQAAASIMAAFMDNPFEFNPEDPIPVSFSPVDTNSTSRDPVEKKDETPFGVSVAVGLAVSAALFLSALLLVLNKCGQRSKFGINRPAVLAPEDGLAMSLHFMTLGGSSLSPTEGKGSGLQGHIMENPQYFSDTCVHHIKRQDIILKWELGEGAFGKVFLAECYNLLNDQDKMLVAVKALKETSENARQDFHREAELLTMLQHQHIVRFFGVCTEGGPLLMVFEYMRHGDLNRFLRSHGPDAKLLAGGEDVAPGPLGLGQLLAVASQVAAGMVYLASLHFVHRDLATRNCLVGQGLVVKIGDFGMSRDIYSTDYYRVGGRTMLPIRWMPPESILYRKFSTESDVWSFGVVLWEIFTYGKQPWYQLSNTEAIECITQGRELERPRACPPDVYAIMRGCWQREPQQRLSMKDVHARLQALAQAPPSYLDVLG
T2 sequence (P01139 122-241 partner): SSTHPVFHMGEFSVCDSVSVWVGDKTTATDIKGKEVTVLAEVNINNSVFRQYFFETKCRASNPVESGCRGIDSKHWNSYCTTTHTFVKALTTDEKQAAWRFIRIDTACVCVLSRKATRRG

parental BaF3 cells = test: Proliferation of parental (untransformed) Ba/F3 cells maintained with IL3; format: cell-based, murine; conditions: Mus musculus, BaF3, parental Ba/F3 cells; read-out: Ba/F3 IC 50
Protocol: as §1, §2
(§5) The cell line used is the luciferase expressing Ba/F3 murine hematopoietic progenitor cell line transformed with human Tel-TrkA, Tel-TrkB or Tel-TrkC cDNAs (Ba/F3 EN A/B/C). These cells maintained in RPMI/10% fetal bovine serum (RPMI/FCS) supplemented with penicillin 50 mg/mL, streptomycin 50 mg/mL and L-glutamine […]. Untransformed Ba/F3 cells were similarly maintained with the addition 5 ng/ml of murine recombinant IL3. 50 μl of a Ba/F3 or Ba/F3 EN A/B/C cell suspension were plated in Greiner 384 well microplates (white)) at a density of 2000 cells per well. 50 nl of serially diluted test compound (10-0.0001 mM in DMSO solution) is added to each well. The cells were incubated for 48 hours at 37° C., 5% CO2. 25 μl of Bright Glo® (Promega) luciferase substrate is added to each well. The emited luminiscence is quantified using the ACQUEST™ luminescence system (Molecular Devices). IC50 values were calculated by linear regression analysis of the percentage inhibition of each compound at 12 concentrations.

Tel-TrkA = target: T3, Tel-TrkA (Homo sapiens, UniProt P04629); test: Inhibition of proliferation of Ba/F3 cells expressing Tel-TrkA (BaF3/Tel-TrkA, luciferase/Bright Glo readout); format: cell-based; conditions: read-out: Ba/F3 Tel-TrkA IC 50
T3 construct: dimerization domain of Tel (ETV6) transcription factor (fusion partner, human ETV6 P41212); expressed in transfected cells; host or cells: luciferase expressing Ba/F3 murine hematopoietic progenitor cells; the other entry of the earlier key: ETV6 (P41212, Transcription factor ETV6)
T3 sequence (P04629 510-796 limits assumed): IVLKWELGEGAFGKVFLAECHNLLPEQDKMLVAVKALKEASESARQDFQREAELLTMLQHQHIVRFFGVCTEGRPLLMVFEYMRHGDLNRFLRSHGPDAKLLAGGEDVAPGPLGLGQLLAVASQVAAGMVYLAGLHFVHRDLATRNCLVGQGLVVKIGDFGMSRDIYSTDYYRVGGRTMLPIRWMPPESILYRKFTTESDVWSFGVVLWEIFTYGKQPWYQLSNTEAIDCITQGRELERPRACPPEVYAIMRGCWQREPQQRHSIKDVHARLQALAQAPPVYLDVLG
Protocol: as §1, §2, §3, §4

Tel-TrkC = target: T4, Tel-TrkC (Homo sapiens, UniProt Q16288); test: Inhibition of proliferation of Ba/F3 cells expressing Tel-TrkC (BaF3/Tel-TrkC); format: cell-based; conditions: read-out: Ba/F3 Tel-TrkC IC 50
T4 construct: The cells also express luciferase as the viability read-out; it is not fused to the kinase; P41212 (Transcription factor ETV6)
T4 sequence (Q16288 whole entry, the tested form may be a part): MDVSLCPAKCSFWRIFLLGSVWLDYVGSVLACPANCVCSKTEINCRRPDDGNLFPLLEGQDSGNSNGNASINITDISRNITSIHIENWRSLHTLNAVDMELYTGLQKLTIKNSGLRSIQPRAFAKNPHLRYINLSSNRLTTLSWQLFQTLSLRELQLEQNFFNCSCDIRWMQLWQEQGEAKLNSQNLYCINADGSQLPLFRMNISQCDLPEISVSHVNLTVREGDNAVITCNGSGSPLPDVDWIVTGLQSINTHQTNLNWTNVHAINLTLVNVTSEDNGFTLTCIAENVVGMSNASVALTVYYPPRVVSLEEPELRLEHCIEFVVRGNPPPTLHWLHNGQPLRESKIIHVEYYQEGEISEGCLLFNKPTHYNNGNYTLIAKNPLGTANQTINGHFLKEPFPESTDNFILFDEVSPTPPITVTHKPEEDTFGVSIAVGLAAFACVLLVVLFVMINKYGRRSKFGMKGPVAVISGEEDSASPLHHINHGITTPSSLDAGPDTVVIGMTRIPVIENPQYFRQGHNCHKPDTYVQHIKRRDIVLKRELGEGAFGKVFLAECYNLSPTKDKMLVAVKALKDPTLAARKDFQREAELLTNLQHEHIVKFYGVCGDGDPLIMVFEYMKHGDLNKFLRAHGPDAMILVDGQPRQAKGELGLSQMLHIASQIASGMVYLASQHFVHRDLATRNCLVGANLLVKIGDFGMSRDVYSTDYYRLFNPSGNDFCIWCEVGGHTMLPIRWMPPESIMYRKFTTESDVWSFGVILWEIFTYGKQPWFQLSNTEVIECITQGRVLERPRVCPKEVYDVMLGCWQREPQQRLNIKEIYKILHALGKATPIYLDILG
Protocol: as §1, §2, §3, §5

SMILES | IC50 (Tel-TrkB) [µM] | BaF3 TRKA-NGF CTG IC 50 [1] [µM] | IC50 (Tel-TrkA) [µM] | IC50 (Tel-TrkC) [µM] | IC50 (KM12 luc) [µM] | IC50 (parental BaF3 cells) [µM]
Fc1cccc(C2CCCN2c2ccc3ncc(-c4cncc(Cl)n4)n3n2)c1 (stereo not shown) [Table 3-Compound 10] | 0.1 | 0.18 | 0.2 | 0.04 | 0.094 | > 10
Fc1cccc(C2CCCN2c2ccc3ncc(-c4csc(N5CCCCC5)n4)n3n2)c1 (stereo not shown) [Table 3-Compound 6] | 0.76 | 0.54 | 0.36 | 0.18 | 0.38 | > 10
CN1CCC(Oc2cc(-c3cnc4ccc(N5CCCC5c5cc(F)ccc5F)nn34)ccc2C#N)C1 (stereo not shown) [Table 5-Compound 22] | 0.088 | 0.316 | 0.132 | 0.027 | 0.099 | 2.25
N#Cc1ccc(-c2cnc3ccc(N4CCCC4c4cc(F)ccc4F)nn23)cc1N1CCC(N2CCOCC2)CC1 (stereo not shown) [Table 5-Compound 13] | 0.035 | 0.0053 | 0.0035 | 0.0017 | 0.0075 | 4.84
CN(C)c1ccc(-c2cnc3ccc(N4CCCC4c4cc(F)ccc4F)nn23)cc1C#N (stereo not shown) [Table 5-Compound 4] | 0.06 | 0.203 | 0.166 | 0.032 | 0.089 | 5.36
N#Cc1cccc(-c2cnc3ccc(N4CCC(=O)N4c4cccc(F)c4)nn23)c1 [Table 3-Compound 34] | 0.4 | 0.50 | 1.2 | 0.13 | 0.01 | > 10
N#Cc1ccc(-c2cnc3ccc(N4CCCC4c4cc(F)ccc4F)nn23)cc1OCCN1CCOCC1 (stereo not shown) [Table 5-Compound 17] | 0.015 | 0.034 | 0.0064 | 0.0031 | 0.0088 | > 10
CN(C)CCN(C)c1cc(-c2cnc3ccc(N4CCCC4c4cc(F)ccc4F)nn23)ccc1C#N (stereo not shown) [Table 5-Compound 23] | 0.074 | 0.111 | 0.136 | 0.016 | 0.109 | 3.71
N#Cc1cc(-c2cnc3ccc(N4CCCC4c4cc(F)ccc4F)nn23)ccc1F (stereo not shown) [Table 5-Compound 1] | 0.038 | 0.043 | 0.051 | 0.021 | 0.0092 | 7.66
O=C(c1cccc(-c2cnc3ccc(N4CCCC4c4cccc(F)c4)nn23)n1)N1CCC(O)CC1 (stereo not shown) [Table 7-Compound 158] | 0.052 | 0.087 | 0.065 | – | 0.019 | > 11
Fc1cccc(C2COCCN2c2ccc3ncc(-c4cccc(OC5CCNCC5)n4)n3n2)c1 (stereo not shown) [Table 2-Compound 18] | 0.036 | 0.056 | 0.036 | – | 0.022 | > 10
OC1CCN(c2cccc(-c3cnc4ccc(N5CCOCC5c5cccc(F)c5)nn34)n2)CC1 (stereo not shown) [Table 7-Compound 1] | 0.017 | 0.030 | 0.017 | – | 0.0076 | > 10
Fc1cccc(C2COCCN2c2ccc3ncc(-c4cccc(N5CC6CC5CN6)n4)n3n2)c1 (stereo not shown) [Table 7-Compound 9] | 0.063 | 0.053 | 0.059 | – | 0.014 | > 10

The remaining molecules from weak to strong by IC50 (Tel-TrkB), led by results:

IC50 (Tel-TrkB) [µM] | BaF3 TRKA-NGF CTG IC 50 [1] [µM] | IC50 (Tel-TrkA) [µM] | IC50 (Tel-TrkC) [µM] | SMILES | IC50 (KM12 luc) [µM] | IC50 (parental BaF3 cells) [µM]
0.0149 | 0.0452 | 0.021 | – | CCN(CC)CCNc1cccc(-c2cnc3ccc(N4CCCC4c4cccc(F)c4)nn23)n1 (stereo not shown) [Table 4-Compound 14] | 0.0308 | 5.72
0.013 | 0.031 | 0.018 | – | OCc1cccc(-c2cnc3ccc(N4CCCC4c4cccc(F)c4)nn23)n1 (stereo not shown) [Table 7-Compound 2] | 0.026 | > 10
0.0079 | 0.0098 | 0.0081 | – | OC1CCN(c2ccc(-c3cccc(-c4cnc5ccc(N6CCCC6c6cccc(F)c6)nn45)n3)cn2)CC1 (stereo not shown) [Table 7-Compound 61] | 0.004 | > 10
0.0067 | 0.0081 | 0.0061 | – | O=C(NCCO)C1CCN(c2cccc(-c3cnc4ccc(N5CCOCC5c5cccc(F)c5)nn34)n2)CC1 (stereo not shown) [Table 7-Compound 12] | 0.0012 | > 10
0.0066 | 0.019 | 0.0069 | – | Cc1cnc(-c2cccc(-c3cnc4ccc(N5CCCC5c5cccc(F)c5)nn34)n2)[nH]1 (stereo not shown) [Table 7-Compound 3] | 0.017 | 3.87
0.0058 | 0.017 | 0.0086 | – | Fc1cccc(C2COCCN2c2ccc3ncc(-c4ccccn4)n3n2)c1 (stereo not shown) [Table 2-Compound 4] | 0.0083 | > 10
0.003 | 0.008 | 0.003 | – | O=C(O)C1CN(c2cccc(-c3cnc4ccc(N5CCCC5c5cccc(F)c5)nn34)n2)C1 (stereo not shown) [Table 7-Compound 116] | 0.003 | > 9.1
0.003 | 0.004 | 0.003 | – | CC(=O)N[C@@H]1CCN(c2cccc(-c3cnc4ccc(N5CCCC5c5cccc(F)c5)nn34)n2)C1 (stereo partly shown) [Table 7-Compound 119] | 0.002 | > 11
0.0022 | 0.029 | 0.0016 | – | CN(C)C(=O)CN1CCN(c2ccc(-c3cnc4ccc(N5CCOCC5c5cccc(F)c5)nn34)cc2C#N)CC1 (stereo not shown) [Table 2-Compound 8] | 0.0052 | > 10
0.0004 | 0.0022 | 0.0007 | – | O=C1CN(c2cccc(-c3cnc4ccc(N5CCCC5c5cccc(F)c5)nn34)n2)CCN1 (stereo not shown) [Table 4-Compound 5] | 0.0012 | > 10

Source: patent publication US8507488B2, “Fused nitrogen containing heterocycles and compositions thereof as kinase inhibitors” (IRM LLC, priority 2008, dated 2013)
